Reference: patent publication US20130203805A1, “Methods for treating anemia using inhibitors of hypoxia-inducible factor (HIF) hydroxylase” (FIBROGEN, INC., priority 2001, published 2013)

How the values were obtained:
[1] = format: in vivo, Sprague Dawley male rats
Protocol: The ability of a compound of the invention to treat anemia associated with post-ischemic acute renal failure was assayed using a procedure described by Vaziri et al. (1994, Am J Physiol 266(3 Pt 2):[…]-6.) Fifteen Sprague Dawley male rats (280-300 g) were obtained from Charles River Laboratories. On day 0, rats were treated by intraperitoneal injection with a single dose of saline (control; n=3) at 8 ml/kg, or cisplatin (CP; Bedford Laboratories, Bedford Ohio) at either 7 mg/kg (7 ml/kg; n=6) or 10 mg/kg (10 ml/kg; n=6). Blood samples (0.2 ml) were collected on days 5, 9, and 16 as follows. […] Blood samples were processed for hematocrit as described above to determine the degree of anemia produced in each animal. […] Blood samples (0.5 ml) were collected as described above immediately prior to treatment and 4 days after treatment initiation. Blood samples were analyzed for CBC and reticulocyte counts as described above. On day 9 after initiation of oral treatment, a blood sample (0.1 ml) was collected and processed for hematocrit as described above.

[2] = Dose response in vivo: reticulocytes, hemoglobin, hematocrit (Example 3); set-up: species or system Sprague Dawley male rats; conditions: rats
Protocol: Twelve Sprague Dawley male rats (approx. 260 g) were obtained from Charles River Laboratories, Inc., and treated by oral gavage as follows: (1) Four rats were dosed daily for days 1 to 7 with 0.5% carboxymethyl cellulose (CMC; Sigma-Aldrich, St. Louis Mo.) (0 mg/kg), were not treated for days 8 to 14, and then were dosed daily for days 15 to 19 with 0.5% CMC (0 mg/kg); (2) four animals were treated on day 0 and day 3 with a total of 7 ml/kg/day of 5.0% compound C (50 mg/ml in 0.5% CMC) (350 mg/kg), were not treated days 8 to 14, and then were dosed daily for days 15 to 19 with 3% compound C: (30 mg/ml in 0.5% CMC) (60 mg/kg/day); and (3) four animals were treated daily for days 1 to 7 with a total volume of 4 ml/kg/day of 2.5% compound C (25 mg/ml in 0.5% CMC) (100 mg/kg), were not treated days 8 to 14, and then were dosed daily for days 15 to 19 with 3% compound C (60 mg/kg/day). Thus, groups (2) and (3) received a total of 700 mg compound/kg body weight over the first 7 days, no treatment from days 8 to 14, and then 60 mg/kg/day for another 5 days. Animals were monitored for change in body weight and signs of toxicity. Blood samples (2×0.5 ml) were collected on days 1, 3, 7, 10, 17 and 21 as follows. Animals were anesthetized with isoflurane and 0.5 ml of blood was collected from the tail vein of each animal into each of two MICROTAINER EDTA-2K tubes (Becton-Dickinson). Blood samples were processed for erythropoietin levels, hemoglobin, and hematocrit as described above.

O=C(O)CNC(=O)c1nc(Cl)c2ccccc2c1O [Compound C, [(1-chloro-4-hydroxy-isoquinoline-3-carbonyl)-amino]-acetic acid]
hematocrit levels versus normal control ([1]; rats initially exposed to 7 mg/kg CP, 2 ml/kg of 2.5% compound C oral once daily 5 days, day 9, FIG. 5A): at or above normal control values | number of circulating reticulocytes ([1]; rats, CP-treated, 2 ml/kg of 2.5% compound C oral once daily 5 days, FIG. 5B): also increased | hematocrit versus non-treated counterparts ([1]; rats, CP-treated, 2 ml/kg of 2.5% compound C oral once daily 5 days, day 9 post-treatment, FIG. 5A): significantly higher | hematocrit in CP-treated animals ([1]; rats, 2 ml/kg of 2.5% compound C oral once daily 5 days from day 19, 4 days after initiating treatment, FIG. 5A): increased | increase in hemoglobin and hematocrit with lower doses ([2]; 60 mg/kg/day days 15 to 19 after no treatment days 8 to 14): maintained over an extended period of time | immature blood cells (reticulocytes) ([2]; oral gavage, total 700 mg/kg over first 7 days, FIG. 4B): subsequent increase | blood hemoglobin levels ([2]; oral gavage, total 700 mg/kg over first 7 days, FIG. 4C): increased | hematocrit ([2]; oral gavage, total 700 mg/kg over first 7 days, FIG. 4D): increased
